Measured values from paper PMC7802074, “Azanitrile Inhibitors of the SmCB1 Protease Target Are Lethal to Schistosoma mansoni: Structural and Mechanistic Insights into Chemotype Reactivity” (ACS Infectious Diseases, 2020).
Where “and” joins values, the source holds several entries; their conditions need not be identical. Equal values may be shown once. Read-outs that look alike come from different tables or passages of the source.

Key:
[1] = molecular target: recombinant SmCB1 (Schistosoma mansoni, UniProt Q8MNY2, T185A/T300A); assay: SmCB1 kinetic inhibition assay with fluorogenic substrate Cbz-Phe-Arg-AMC; type: biochemical; details: substrate Cbz-Phe-Arg-AMC; for SmCB1 inhibition k2nd (second-order rate constant): slow-binding azadipeptide nitriles
Procedure: Inhibition measurements were performed in triplicates in 96-well microplates (100 μL assay volume) at 37 °C. SmCB1 (20–40 pM) was added to a mixture of the fluorogenic substrate Cbz-Phe-Arg-AMC (20 μM) and an inhibitor (0–100 μM) in 0.1 M sodium acetate, pH 5.5, containing 2.5 mM dithiothreitol and 0.1% PEG 6000. The substrate hydrolysis was monitored in an Infinite M1000 microplate reader (Tecan, Männedorf, Switzerland) at excitation and emission wavelengths of 360 and 465 nm, respectively, for up to 15 and 60 min for fast- and slow-binding inhibitors, respectively. […] For slow-binding inhibitors, an observed first-order rate constant kobs was calculated at each inhibitor concentration by fitting the progress curve to the equation P = vst + (vi – vs)(1 – […])/kobs + d, where P is the product formation, vs is the steady-state velocity, t is the reaction time, vi is the initial velocity, and d is the offset. The inhibition constant Ki′ was determined by nonlinear regression using the equation vs/v0 = 1/(1 + [I]/Ki′). The true inhibition constants Ki were then calculated using the equation Ki = Ki′/(1 + [S]/Km), where [S] is the substrate concentration and Km is the Michaelis constant. The apparent second-order rate constant k2nd′ was determined by fitting to the linear equation kobs = k2nd′[I] + koff, where koff is the first-order rate constants for the dissociation of the enzyme–inhibitor complex and the true constant k2nd was calculated by the correction k2nd = k2nd′(1 + [S]/Km). […] In none of the assay systems did the final concentration of DMSO exceed 1.5%.

[2] = test system: S. mansoni newly transformed schistosomula (NTS); assay: Schistosome phenotypic assay; type: cell-based, Schistosoma mansoni; details: for Descriptors Day 1 (phenotypic changes) / Descriptors Day 2 (phenotypic changes) / Descriptors Day 3 (phenotypic changes) / Descriptors Day 4 (phenotypic changes): 10 µM inhibitor; for Severity score Day 1 / Severity score Day 2 / Severity score Day 3 / Severity score Day 4: 10 μM inhibitor, scale 0 (no effect) to 4 (severe); for Severity score Day 1: 24 h; for Severity score Day 2: 48 h
Procedure: Newly transformed schistosomula (NTS) of S. mansoni were prepared by mechanically transforming infective larvae (cercariae) as described previously.[70],[71] NTS (200–300 parasites) were incubated in 200 μL of Basch Medium 169 containing 5% FBS, 100 U mL^–1 penicillin, and 100 μg mL^–1 streptomycin at 5% CO2 and 37 °C.[70],[72],[73] Inhibitors were added at the final concentration of 10 μM,[20],[69] and changes in phenotypes were observed every 24 h for up to 4 days. A constrained nomenclature of “descriptors” is used to record the multiple and dynamic changes in movement, shape, and translucence of which the schistosome parasite is capable (Table S3).[70] These descriptors are then converted into an ordinal “severity score” system from 0 (no effect) to 4 (maximum effect), which allows for the relative comparison of compound effects, as described.[74],[75] Images of NTS were captured using a Zeiss Axiovert 40 C inverted microscope (10× objective) and a Zeiss AxioCam MRc digital camera controlled by AxioVision 40 (v. 4.8.1.0) software.

[3] = Cytotoxicity, XTT test, HepG2; type: cell-based; details: human, % viability vs. untreated cells, read-out: Cell line viability after 72 h; for viability at 72 h, 1 µM: HepG2, 1 µM; for viability at 72 h, 10 µM: HepG2, 10 µM
Procedure: (§1) T able S4. […]
(§2) Cell line viability after 72 h (%)a
(§3) Inhibitor 1 µM 10 µM 1 µM 10 µM
(§4) aCytotoxicity of the inhibitors towards human cell lines are expressed as % viability vs. untreated cells. Cells were treated with
(§5) the indicated concentration of the compounds for 72 h and assayed by means of the XTT test (as described previously 12).
(§6) Standard deviation values were within 10% of the mean of tetraplicates. […]

[4] = Cytotoxicity, XTT test, HUVEC; type: cell-based; details: human, % viability vs. untreated cells, read-out: Cell line viability after 72 h
Procedure: as §1, §2, §3, §4, §5, §6

[5] = SmCB1 inhibition Ki, kinetic activity assay, pH 5.5, 37 °C
[6] = SmCB1 inhibition Ki, Table S2, carbadipeptide nitriles
[7] = Table S2, carbadipeptide nitriles, read-out: SmCB1 inhibition Ki

Sequence of recombinant SmCB1 (Q8MNY2 87-340 T185A/T300A): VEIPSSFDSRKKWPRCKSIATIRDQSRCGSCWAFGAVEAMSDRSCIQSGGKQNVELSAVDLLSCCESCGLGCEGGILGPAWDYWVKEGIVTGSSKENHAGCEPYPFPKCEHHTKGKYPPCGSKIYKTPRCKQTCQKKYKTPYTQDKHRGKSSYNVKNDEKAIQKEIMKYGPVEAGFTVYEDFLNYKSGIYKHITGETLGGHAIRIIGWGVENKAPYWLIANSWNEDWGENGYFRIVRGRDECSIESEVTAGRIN

Row | SMILES | Ki [1, 5] | SmCB1 inhibition k2nd (second-order rate constant) [1] | Descriptors Day 1 (phenotypic changes) [2] | Descriptors Day 2 (phenotypic changes) [2] | Severity score Day 1 [2] | Severity score Day 2 [2] | Severity score Day 3 [2] | Severity score Day 4 [2] | viability at 72 h, 1 µM [3] | viability at 72 h, 10 µM [3] | viability at 72 h, 1 µM [4] | viability at 72 h, 10 µM [4] | Ki [1, 6] | Descriptors Day 3 (phenotypic changes) [2] | Descriptors Day 4 (phenotypic changes) [2] | Ki [1, 7]
1 | CC(C)CC(NC(=O)NCc1ccccc1)C(=O)N(C)N(C)C#N (centres unmarked) [Compound 3a] | 0.0061 ± 0.0007 µM | 20.4 10^3 M^-1 s^-1 and 20.4 ± 1.9 10^3 M^-1 s^-1 | R, Unc, Dark | Deg | 3 | 4 | 4 | 4 | 82% | 83% | 106% | 90% |  |  |  | 
2 | CC(C)C[C@H](NC(=O)c1ccc(-c2noc(-c3cccs3)n2)cc1)C(=O)N(C)N(C)C#N [Compound 5a] | 0.0048 ± 0.0003 µM | 29.0 10^3 M^-1 s^-1 and 29.0 ±1.4 10^3 M^-1 s^-1 | Deg | Deg | 2 | 4 | 4 | 4 | 91% | 101% | 91% | 66% |  |  |  | 
3 | CN(C(=O)[C@H](Cc1ccccc1)NC(=O)OCc1ccccc1)N(C#N)CCc1ccccc1 [Compound 8a] | 0.0048 ± 0.0002 µM | 5.2 10^3 M^-1 s^-1 and 5.2 ± 0.4 10^3 M^-1 s^-1 | Deg |  | 4 and 4/4 | 4 and 4/4 | 4 | 4 | 102% | 83% | 101% | 44% |  |  |  | 
4 | CN(CC#N)C(=O)[C@H](Cc1ccccc1)NC(=O)OCc1ccccc1 [Compound 9c] | > 100 µM |  |  |  | 0 | 0 | 0 | 0 |  |  |  |  | > 10 µM |  |  | 
5 | CN(C(=O)[C@H](Cc1ccccc1)NC(=O)OCc1ccccc1)N(C#N)Cc1ccccc1 [Compound 10a] | 0.0489 ± 0.0047 µM | 1.5 ± 0.1 10^3 M^-1 s^-1 | R, Unc | Deg | 2 | 4 | 4 | 4 |  |  |  |  |  |  |  | 
6 | C[C@@H](C#N)N(C)C(=O)[C@H](Cc1ccccc1)NC(=O)OCc1ccccc1 [Compound 10c] | > 100 µM |  |  |  | 0 | 0 | 0 | 0 |  |  |  |  | > 10 µM |  |  | 
7 | CCC(C)C(NC(=O)OCc1ccccc1)C(=O)N(C)N(C)C#N (centres unmarked) [Compound 12a] | 0.0717 ± 0.0044 µM |  | Deg |  | 4 and 4/4 | 4 and 4/4 | 4 | 4 |  |  |  |  |  |  |  | 
8 | COc1ccc(C[C@H](NC(=O)OCc2ccccc2)C(=O)N(C)N(C)C#N)cc1 [Compound 13a] | 0.0806 ± 0.0071 µM |  | Deg | Deg | 4 and 4/4 | 4 and 4/4 | 4 | 4 |  |  |  |  |  |  |  | 
9 | CC(C)[C@H](NC(=O)OCc1ccccc1)C(=O)N(C)N(C)C#N [Compound 14a] | 0.0883 ± 0.0104 µM |  | R, Unc, Dark | Deg | 3 | 4 | 4 | 4 |  |  |  |  |  |  |  | 
10 | C[C@H](NC(=O)OCc1ccccc1)C(=O)N(C)N(C)C#N [Compound 15a] | 0.714 ± 0.058 µM |  | R, Unc | Deg | 2 | 4 | 4 | 4 |  |  |  |  |  |  |  | 
11 | Cc1nc(-c2ccc(CNC(=O)N[C@@H](CC(C)C)C(=O)N(C)N(C)C#N)cc2)no1 [Compound 16a] | 0.03 ± 0.0041 µM | 9.2 ± 0.8 10^3 M^-1 s^-1 |  | R, Unc | 0 | 2 | 3 | 4 |  |  |  |  |  | R, Unc, Dark | Deg | 
12 | CC(C)C[C@H](NC(=O)NCc1ccc(-c2noc(-c3cccs3)n2)cc1)C(=O)N(C)N(C)C#N [Compound 17a] | 0.0583 ± 0.0028 µM | 3.1 ± 0.6 10^3 M^-1 s^-1 |  |  | 0 and 0/0 | 0 and 0/0 | 0 | 0 |  |  |  |  |  |  |  | 
13 | CC(C)C[C@H](NC(=O)Nc1ccccc1)C(=O)N(C)N(C)C#N [Compound 18a] | 0.112 ± 0.011 µM |  | R, Unc | Deg | 2 | 4 | 4 | 4 |  |  |  |  |  |  |  | 
14 | CCCC[C@H](NC(=O)OC(C)(C)C)C(=O)NCC#N [Gü967] |  |  |  |  | 0 | 0 | 0 | 0 |  |  |  |  |  |  |  | 0.87 ± 0.1 µM
15 | CC(C)(C)OC(=O)N[C@@H](Cc1cccs1)C(=O)NCC#N [Gü969] |  |  |  |  | 0 | 0 | 0 | 0 |  |  |  |  |  |  |  | 0.62 ± 0.05 µM
16 | CC(C)(C)OC(=O)N[C@@H](Cc1ccc(-c2ccccc2)cc1)C(=O)NCC#N [Gü1124] |  |  |  |  | 0 | 0 | 0 | 0 |  |  |  |  |  |  |  | 0.27 ± 0.05 µM
17 | N#CCNC(=O)[C@H](Cc1ccccc1)NC(=O)c1ccc(-c2ccccc2)cc1 [Gü1136] |  |  |  |  | 0 | 0 | 0 | 0 |  |  |  |  |  |  |  | 0.053 ± 0.012 µM
18 | N#CCNC(=O)[C@H](Cc1ccc(O)cc1)NC(=O)OCc1ccccc1 [Gü2031] |  |  |  |  | 0 | 0 | 0 | 0 |  |  |  |  |  |  |  | 0.76 ± 0.22 µM
19 | CC(C)C[C@H](NC(=O)c1ccc(-c2ccccc2)cc1)C(=O)NCC#N [Gü2420] |  |  |  | R, Dark | 0 | 2 | 2 | 2 |  |  |  |  |  | R, Dark | R, Dark | 0.056 ± 0.013 µM
20 | N#CCNC(=O)[C@H](CC1CCCCC1)NC(=O)c1ccc(-c2noc(-c3cccs3)n2)cc1 [Gü2421] |  |  | R, S | R, S | 2 | 2 | 3 | 3 |  |  |  |  |  | R, S, Dark | R, S, Dark | 0.012 ± 0.004 µM
